The target in assay [1] is T1, secNluc-D3R (UniProt P35462+Q9GV45, A31E/A60N/A81I/F95D/I117V/K70R/L54V/L99Q/M102K/N193R/P142E/Q151K/Q38R/Q45L/V71I/Y165I). Put plainly: Live-cell NanoBRET saturation binding, HEK293T cells. The protocol: Figure 5 NanoBRET saturation curves for the fluorescent ligands 10a-c. Saturation binding experiments were performed with live HEK293T cells expressing secNluc-D3R and the fluorescent ligands 10a, 10b and 10c, comprising a trifluorethyl-rhodamine derivative, a Cy3B and an Alexa488 fluorophore, respectively. […] Data points show mean ± SEM of one representative out of n = 5 (for 10a) or n = 4 (for 10b,c) experiments, with each condition carried out in triplicate. The netBRET signal was calculated as the difference between total BRET and the signal obtained in the absence of a fluorescent ligand.
T1 sequence (Q9GV45+P35462 fused with the stated changes): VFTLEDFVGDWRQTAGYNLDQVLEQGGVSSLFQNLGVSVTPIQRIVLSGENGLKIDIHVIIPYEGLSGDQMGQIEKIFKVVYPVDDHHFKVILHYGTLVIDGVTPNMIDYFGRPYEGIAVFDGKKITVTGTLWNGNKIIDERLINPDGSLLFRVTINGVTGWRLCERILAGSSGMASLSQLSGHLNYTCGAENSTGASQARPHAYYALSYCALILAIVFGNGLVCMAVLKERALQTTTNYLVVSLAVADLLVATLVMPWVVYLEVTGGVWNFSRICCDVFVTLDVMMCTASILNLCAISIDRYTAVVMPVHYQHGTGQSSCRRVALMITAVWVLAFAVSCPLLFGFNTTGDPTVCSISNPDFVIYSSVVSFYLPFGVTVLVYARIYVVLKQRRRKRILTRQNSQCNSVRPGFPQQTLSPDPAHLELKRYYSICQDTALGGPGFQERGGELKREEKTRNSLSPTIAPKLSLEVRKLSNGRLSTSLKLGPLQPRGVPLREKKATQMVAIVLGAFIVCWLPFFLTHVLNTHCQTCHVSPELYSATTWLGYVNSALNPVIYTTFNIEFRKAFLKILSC
For whole cell NanoBRET saturation assays, HEK293T cells were transfected with secNluc-D3R employing Mirus TransIT-293 (3:1 reagent to DNA ratio). After 24 h at 37 °C, 5% CO2, cells were detached using Versene and transferred to white, F-bottom 384-well plates at a density of 2,500 cells/well and incubated for another 24 h at 37 °C, 5% CO2. Cells were washed with PBS and incubated for 30 min at 37 °C with 5% FBS in DMEM without phenol red, before the fluorescent ligands (5 µL, diluted into DMEM without phenol red with 5% FBS from a 1 mM DMSO-stock) were added. […] After 1 h incubation with the ligands at 37 °C, furimazine (Promega, final dilution 1:500 to 1:2,500) was added, followed by a 5 min incubation at room temperature in the dark. BRET was measured as the ratio of acceptor fluorescence and donor luminescence employing a CLARIOstar microplate reader equipped with 475/30 nm and 535/30 or 580/30 emission filters, respectively. Total, non-specific and specific binding were analyzed employing the algorithms for one-site saturation binding implemented in PRISM6.0 or 8.0.
On the technique in general: In BRET a luciferase serves as donor, and the signal depends on an acceptor being close.

The target of assay [2] is T1, secNluc-D3R. The assay can be described thus: Membrane-based NanoBRET saturation binding. As to conditions: membranes from HEK293T cells expressing secNluc-D3R; KD ± SEM. The protocol: . After addition of furimazine (1:5,000, final volume 35 µL), and 5 min incubation at room temperature in the dark, BRET readings were obtained using a CLARIOstar plate reader equipped with a 475/30 nm donor together with a 535/30 nm (for 10a) or 620/30 nm (for 10b) acceptor emission filter. […]. Kinetic assays were monitored at room temperature and minimal possible cycle time of the CLARIOstar was used for each measurement. Data was fitted to one phase association and dissociation equations in PRISM6.0 to determine the kinetic constants. In competition binding experiments, membranes were incubated with serial dilutions of unlabeled ligands and the fluorescent ligand 10a (10 or 100 nM) for 90 min at 37 °C. Addition of furimazine (1:5,000) and BRET measurements were carried out as described above. Data analysis was performed using the one site—fit Ki equation in PRISM6.0 to determine the inhibition constants (Ki) of the unlabeled ligands.
Supplementary Fig. 4. NanoBRET saturation curves obtained with ligands 10a,b and membranes from HEK293T expressing secNluc- D3R. […]
calculated as the difference between total and non- specific binding . BRET was measured after 90 min incubation at 37 °C and represents mean ± SD of an individual representative out of 3 – 4 independent experiments, with each condition in triplicate. […]

[3] abbreviates: read-out: KD NanoBRET saturation; live HEK293T cells expressing secNluc-D3R; KD ± SEM.

For `CCCN(CCCCc1cn(-c2ccc(CNC(=O)c3ccc(-c4c5ccc(=NCC(F)(F)F)cc-5oc5cc(NCC(F)(F)F)ccc45)c(C(=O)O)c3)cc2)nn1)C1Cc2ccccc2C1` [10a], the Kd amounted to 720 ± 70 pM at secNluc-D3R [1] (live HEK293T cells expressing secNluc-D3R; KD ± SEM; read-out: KD NanoBRET saturation) and 900 ± 140 pM at secNluc-D3R [2].

With `CCCN(CCCCc1cn(-c2ccc(C(=O)NCCCNC(=O)c3ccc(-c4c5ccc(=N)c(S(=O)(=O)O)c-5oc5c(S(=O)(=O)O)c(N)ccc45)c(C(=O)O)c3)cc2)nn1)C1Cc2ccccc2C1` [10c], the Kd at secNluc-D3R [1] (setting [3]) was found to be 720 ± 80 pM.

Turning to `CCCN(CCCCc1cn(-c2ccc(C(=O)NCCCNC(=O)Cc3ccc4c(c3)C(C)(C)C3=C5C=C6C7=[N+](CCC6OC5CCN34)c3ccc(S(=O)(=O)[O-])cc3C7(C)C)cc2)nn1)C1Cc2ccccc2C1` (centres unmarked) [10b], the figures for the Kd at secNluc-D3R [1] (setting [3]) and at secNluc-D3R [2] were 12100 ± 1700 pM and 11300 ± 1600 pM, respectively.
